From patent publication US20080249075A1, “C11 Modified Retrosteroids as Progesterone Receptor Modulator Compounds” (Solvay Pharmaceuticals GmbH, priority 2007, published 2008)

Tested on: T47D human breast carcinoma cells
Experiment: cells
Type: cell-based
Details: for activation at 0.1 µM / inhibition at 0.1 µM / IC50 / EC50: Homo sapiens, T47D; for activation at 0.1 µM: 48 h, read-out: PS [100 nM] (% stimulation); for inhibition at 0.1 µM: read-out: PI [100 nM] (% inhibition); for IC50: read-out: pIC50 (converted); for EC50: read-out: pEC50 (converted); for PS [100 nM] (% stimulation): agonistic mode, alkaline phosphatase induction (100% = 1 nM Dydrogesterone); for PS [100 nM] (% stimulation) / PI [100 nM] (% inhibition): compound 100 nM; for PI [100 nM] (% inhibition): antagonistic mode, inhibition of alkaline phosphatase induction by 1 nM Dydrogesterone; for pIC50: antagonistic potency against 1 nM Dydrogesterone
Procedure: The progesterone-dependent modulation of alkaline phosphatase expression was examined using T47D human breast carcinoma cells [Keydar et al., 1979]. The assay was performed as previously described by Di Lorenzo et al. (1991) with the modification of using Dydrogesterone as comparative progestin to determine the antagonistic and agonistic activity.
The cell line was purchased from CLS Cell Lines Service (Hildastrasse 21, D-69214 Eppelheim, Germany). In brief, the cells were plated in 96-well plates at 40,000 cells/well using the following growth medium: RPMI 1640 with: 10% FBS, 1 mM Sodium Pyruvat MEM, 10 mM Hepes, 0.01 mg/ml Bovine insulin, and 25 μg/ml Gentamycin. After 24 h of cultivation, the growth medium was replaced with medium containing 2% fetal bovine serum and the test compounds were added to each well to achieve the appropriate compound concentration: For determination of agonistic activity only the test compounds were added; for measurement of antagonistic activity the test compounds and additionally Dydrogesterone as standard progesterone agonist was added to a final concentration of 1 nM. After 48 h of cultivation, the medium was removed and the cells were washed with 200 μl of Dulbecco's phosphate-buffered saline without calcium and magnesium (PBS(−)). Then the cells were fixed with 3.7% formaldehyde in phosphate-buffered saline for 15 min at 22° C. After washing the cells with PBS, 100 μl of a […] (pNPP) solution (pNPP Liquid Substrate System; Sigma) was added to each well and incubated for 2 h at room temperature protected from light. The reaction was stopped with 100 μl 1N NaOH and the absorbance was measured with a spectrophotometer (Victor, Perkin Elmer) at 405 nm. The results are expressed as alkaline phosphatase induction (as 100% with 1 nM Dydrogesterone) or inhibition (against alkaline phosphatase induction by 1 nM Dydrogesterone) at a certain concentration of test compound.
% stimulation=(effect compound−basal)/(effect dydro 1 nM−basal)*100% inhibition of 1 nM Dydro=100*{1-[(effect compound−basal)/(effect dydro 1 nM−basal)]}
For each compound the % inhibition (PI) and % stimulation (PS), respectively, at a compound concentration of 100 nM was determined. For selected compounds, the corresponding values were measured for several different concentrations, and subsequently were plotted against the concentration of the test compound, and used to calculate the IC50 value (for the antagonistic potency; the IC50 value is the concentration (nM), required to reduce the maximal response by 50%) and EC50 values (for the agonistic potency; the EC50 value is the effective concentration (nM) that produced 50% of the maximum response), respectively.

Row | Compound | activation at 0.1 µM [%] | inhibition at 0.1 µM [%] | IC50 [nM] | EC50 [nM] | PS [100 nM] (% stimulation) (T47D cells) [%] | PI [100 nM] (% inhibition) (T47D cells) [%] | pIC50 (T47D cells) | pEC50 (agonistic potency, T47D cells)
1 | CC(=O)[C@H]1CC[C@H]2[C@@H]3C=CC4=CC(=O)CC[C@@]4(C)[C@@H]3[C@@H](OC(=O)NC(C)C)C[C@]12C [Compound No. 1, Dydrogesterone-11β-yl isopropylcarbamate] | -3 | 46 | 158 | – | – | – | – | –
2 | COc1ccc(NC(=O)O[C@H]2C[C@]3(C)[C@@H](C(C)=O)CC[C@H]3[C@@H]3C=CC4=CC(=O)CC[C@@]4(C)[C@@H]32)cc1 [Compound No. 11, (4-Methoxy-phenyl)-carbamic acid dydrogesterone-11β-yl ester] | 0 | 39 | – | – | – | – | – | –
3 | CCO[C@]1(C(C)=O)CC[C@H]2[C@@H]3C=CC4=CC(=O)CC[C@@]4(C)[C@@H]3[C@@H](OC(=O)Nc3cccc(OC)c3)C[C@@]21C [Compound No. 12, (3-Methoxy-phenyl)-carbamic acid 17-ethoxy-dydrogesterone-11β-yl ester] | 23 | 72 | 6.31 | – | – | – | – | –
4 | CC(=O)[C@H]1CC[C@H]2[C@@H]3C=CC4=CC(=O)CC[C@@]4(C)[C@@H]3[C@@H](OC(=O)Nc3cccc(C(N)=O)c3)C[C@]12C [Compound No. 14, (3-Carbamoyl-phenyl)-carbamic acid dydrogesterone-11β-yl ester] | -1 | 38 | 50.1 | – | – | – | – | –
5 | COc1cccc(NC(=O)O[C@H]2C[C@]3(C)[C@@H](C(C)=O)CC[C@H]3[C@@H]3C=CC4=CC(=O)CC[C@@]4(C)[C@@H]32)c1 [Compound No. 15, (3-Methoxy-phenyl)-carbamic acid dydrogesterone-11β-yl ester] | -3 | 43 | 126 | – | – | – | – | –
6 | COc1ccc(C(=O)O[C@H]2C[C@]3(C)[C@@H](C(C)=O)CC[C@H]3[C@@H]3C=CC4=CC(=O)CC[C@@]4(C)[C@@H]32)cc1 [Compound No. 22, 4-Methoxy-benzoic acid dydrogesterone-11β-yl ester] | 29 | 55 | 20 | 12.6 | – | – | – | –
7 | CCO[C@]1(C(C)=O)CC[C@H]2[C@@H]3C=CC4=CC(=O)CC[C@@]4(C)[C@@H]3[C@@H](OC(=O)c3ccccc3)C[C@@]21C [Compound No. 23, Benzoic acid 17-ethoxy-dydrogesterone-11β-yl ester] | 16 | 69 | 15.8 | – | – | – | – | –
8 | CCNC(=O)O/N=C/c1cccc(NC(=O)O[C@H]2C[C@]3(C)[C@@H](C(C)=O)CC[C@H]3[C@@H]3C=CC4=CC(=O)CC[C@@]4(C)[C@@H]32)c1 [Compound No. 33, [3-(N-Ethylcarbamoyl-oximino-formyl)-phenyl]-carbamic acid dydrogesterone-11β-yl ester] | 56 | -29 | – | 200 | – | – | – | –
9 | CC(=O)[C@H]1CC[C@H]2[C@@H]3C=CC4=CC(=O)CC[C@]4(C)[C@H]3C(OC(=O)Nc3ccc4ncccc4c3)C[C@]12C (some centres unmarked) [compound 69, Quinolin-6-yl-carbamic aciddydrogesterone-11-yl ester] | – | – | – | – | 4.0 | 41.0 | 7.2 | –
10 | CC(=O)[C@H]1CC[C@H]2[C@@H]3C=CC4=CC(=O)CC[C@@]4(C)[C@@H]3C(OC(=O)Nc3ccc4c(c3)OCCO4)C[C@]12C (some centres unmarked) [compound 70, (2,3-Dihydro-benzo[1,4]dioxin-6-yl)-carbamic aciddydrogesterone-11-yl ester] | – | – | – | – | 1.0 | 44.0 | 6.9 | –
11 | CC(=O)[C@H]1CC[C@H]2[C@@H]3C=CC4=CC(=O)CC[C@@]4(C)[C@@H]3C(OC(=O)Nc3cccc(OC(F)(F)F)c3)C[C@]12C (some centres unmarked) [compound 74, (3-Trifluoromethoxy-phenyl)-carbamic acid dydrogesterone-11-yl ester] | – | – | – | – | 89.0 | −23.0 | – | 6.3
12 | CC(=O)[C@H]1CC[C@H]2[C@@H]3C=CC4=CC(=O)CC[C@@]4(C)[C@@H]3C(OC(=O)Nc3ccc(OC(F)F)cc3)C[C@]12C (some centres unmarked) [compound 75, (4-Difluoromethoxy-phenyl)-carbamic acid dydrogesterone-11-yl ester] | – | – | – | – | 0.0 | 59.0 | 6.9 | –
13 | CC(=O)[C@H]1CC[C@H]2[C@@H]3C=CC4=CC(=O)CC[C@@]4(C)[C@@H]3C(OC(=O)Nc3ccc(C)c(Br)c3)C[C@]12C (some centres unmarked) [compound 76, (3-Bromo-4-methyl-phenyl)-carbamic acid dydrogesterone-11-yl ester] | – | – | – | – | 4.0 | 67.0 | 7.3 | –
14 | CC(=O)[C@H]1CC[C@H]2[C@@H]3C=CC4=CC(=O)CC[C@@]4(C)[C@@H]3C(OC(=O)Nc3ccc4cc[nH]c4c3)C[C@]12C (some centres unmarked) [compound 88, (1H-Indol-6-yl)-carbamic aciddydrogesterone-11-yl ester] | – | – | – | – | 0.0 | 48.0 | – | –
15 | CSc1ccc(NC(=O)OC2C[C@]3(C)[C@@H](C(C)=O)CC[C@H]3[C@@H]3C=CC4=CC(=O)CC[C@@]4(C)[C@H]23)cc1 (some centres unmarked) [compound 94, (4-Methylsulfanyl-phenyl)-carbamic acid dydrogesterone-11-yl ester] | – | – | – | – | 1.0 | 61.0 | 7.0 | –
16 | CC(=O)Nc1cccc(NC(=O)OC2C[C@]3(C)[C@@H](C(C)=O)CC[C@H]3[C@@H]3C=CC4=CC(=O)CC[C@@]4(C)[C@H]23)c1 (some centres unmarked) [compound 95, (3-Acetylamino-phenyl)-carbamicacid dydrogesterone-11-yl ester] | – | – | – | – | 1.0 | 50.0 | 6.8 | –
17 | CC(=O)[C@H]1CC[C@H]2[C@@H]3C=CC4=CC(=O)CC[C@@]4(C)[C@@H]3C(OC(=O)Nc3ccc4c(c3)S(=O)(=O)C=C4)C[C@]12C (some centres unmarked) [compound 98, (1,1-Dioxo-1H-1lambda*6*-benzo[b]thiophen-6-yl)-carbamicacid dydrogesterone-11-yl ester] | – | – | – | – | 1.0 | 61.0 | 7.0 | –
18 | CC(=O)[C@H]1CC[C@H]2[C@@H]3C=CC4=CC(=O)CC[C@@]4(C)[C@@H]3C(OC(=O)Nc3cccc(N4CCCC4=O)c3)C[C@]12C (some centres unmarked) [compound 100, [3-(2-Oxo-pyrrolidin-1-yl)-phenyl]-carbamic aciddydrogesterone-11-yl ester] | – | – | – | – | 1.0 | 45.0 | 6.6 | –
19 | CC(=O)[C@H]1CC[C@H]2[C@@H]3C=CC4=CC(=O)CC[C@@]4(C)[C@@H]3C(OC(=O)Nc3cccc(-n4cccc4)c3)C[C@]12C (some centres unmarked) [compound 103, (3-Pyrrol-1-yl-phenyl)-carbamicacid dydrogesterone-11-yl ester] | – | – | – | – | 21.0 | 52.0 | 7.2 | –
20 | COc1cc(NC(=O)OC2C[C@]3(C)[C@@H](C(C)=O)CC[C@H]3[C@@H]3C=CC4=CC(=O)CC[C@@]4(C)[C@H]23)cc(-n2cnnn2)c1 (some centres unmarked) [compound 104, (3-Methoxy-5-tetrazol-1-yl-phenyl)-carbamic aciddydrogesterone-11-yl ester] | – | – | – | – | 1.0 | 45.0 | 6.9 | –
